Data on 20 compounds can be found in patent US20180099931A1 (AbbVie S.à.r.l., priority 2016, published 2018).

As a reminder, the EC50 is the concentration needed to bring the measured effect to its halfway point.

SMILES strings stand for the structures. Where two headings read alike, the source gives them in different places.

This assay deals with T1, F508delCFTR (Homo sapiens, UniProt P13569, DEL508-508).
T1 construct: expressed in transfected cells; host or cells: CFBE41o- human lung-derived epithelial cells (CFBE4lo-F508delCFTR-HRP), doxycycline-inducible
T1 sequence (P13569 with tags, fused parts or gaps DEL508-508): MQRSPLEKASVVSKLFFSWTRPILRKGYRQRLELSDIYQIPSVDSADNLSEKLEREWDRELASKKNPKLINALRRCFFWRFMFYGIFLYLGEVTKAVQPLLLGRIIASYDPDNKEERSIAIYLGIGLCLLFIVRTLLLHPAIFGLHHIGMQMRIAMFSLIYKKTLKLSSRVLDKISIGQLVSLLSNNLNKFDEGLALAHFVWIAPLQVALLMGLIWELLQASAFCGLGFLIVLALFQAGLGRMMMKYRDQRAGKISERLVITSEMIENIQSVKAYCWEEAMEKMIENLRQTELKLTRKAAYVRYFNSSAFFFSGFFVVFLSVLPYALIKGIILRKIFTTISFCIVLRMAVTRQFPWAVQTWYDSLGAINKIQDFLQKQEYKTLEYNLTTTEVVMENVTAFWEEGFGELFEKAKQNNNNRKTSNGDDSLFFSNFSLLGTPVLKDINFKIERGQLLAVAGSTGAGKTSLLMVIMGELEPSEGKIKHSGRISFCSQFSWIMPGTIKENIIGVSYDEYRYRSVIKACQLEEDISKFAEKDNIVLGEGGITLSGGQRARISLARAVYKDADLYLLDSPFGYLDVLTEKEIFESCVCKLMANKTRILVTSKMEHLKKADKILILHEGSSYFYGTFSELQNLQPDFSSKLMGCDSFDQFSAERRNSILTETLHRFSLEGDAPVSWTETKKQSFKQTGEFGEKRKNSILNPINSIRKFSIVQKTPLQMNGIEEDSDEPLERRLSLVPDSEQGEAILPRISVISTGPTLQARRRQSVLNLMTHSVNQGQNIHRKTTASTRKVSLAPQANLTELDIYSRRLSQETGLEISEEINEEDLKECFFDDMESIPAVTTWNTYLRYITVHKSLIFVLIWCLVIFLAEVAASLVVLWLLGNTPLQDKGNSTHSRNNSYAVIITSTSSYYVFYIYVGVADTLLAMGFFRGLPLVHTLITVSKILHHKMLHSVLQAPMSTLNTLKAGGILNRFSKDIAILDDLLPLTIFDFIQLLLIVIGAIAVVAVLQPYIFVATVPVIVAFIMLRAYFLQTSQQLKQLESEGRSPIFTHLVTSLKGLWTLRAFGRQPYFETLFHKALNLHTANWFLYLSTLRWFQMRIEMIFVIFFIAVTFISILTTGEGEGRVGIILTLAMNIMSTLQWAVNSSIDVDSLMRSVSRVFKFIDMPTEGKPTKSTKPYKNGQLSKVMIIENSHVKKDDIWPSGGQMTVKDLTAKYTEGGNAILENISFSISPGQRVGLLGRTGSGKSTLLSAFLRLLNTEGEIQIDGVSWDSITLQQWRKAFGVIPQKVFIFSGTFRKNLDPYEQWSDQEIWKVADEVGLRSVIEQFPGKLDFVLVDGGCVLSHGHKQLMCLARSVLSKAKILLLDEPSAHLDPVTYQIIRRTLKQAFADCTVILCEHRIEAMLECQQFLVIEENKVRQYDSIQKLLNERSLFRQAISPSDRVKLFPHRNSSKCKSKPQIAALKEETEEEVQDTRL
Put plainly: Cell Surface Expression-Horse Radish Peroxidase (CSE-HRP) Assay.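 On Maximum % activity (with co-corrector): co-corrector and positive control are both the same reference corrector at 2 µM.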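 On Maximum % activity (without co-corrector): percent of the 2 µM on-plate positive control corrector response above DMSO.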 It is filed as cell-based. The settings on record: for Maximum % activity (with co-corrector) / Emax: maximum at any tested concentration, normalized to on-plate positive control; for Emax: read-out: Maximum % activity (without co-corrector). The protocol:
Cell Surface Expression-Horse Radish Peroxidase (CSE-HRP) Assay;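 on Maximum % activity (with co-corrector): co-corrector and positive control are both the same reference corrector at 2 µM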;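 on Maximum % activity (without co-corrector): percent of the 2 µM on-plate positive control corrector response above DMSO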
The development was achieved by expressing the F508delCFTR mutation along with a horseradish peroxidase (HRP) in the fourth exofacial loop, and then measuring the HRP activity using luminescence readout from these cells, CFBE4lo-F508delCFTR-HRP, that were incubated overnight with the test corrector compounds, either without or with the co-corrector. […] The test compounds were then added either without or with a co-corrector at the required concentrations and further incubated for 18-24 hours at 33° C. The highest concentration tested was 20 μM with an 8-point concentration response curve using a 3-fold dilution in both the test compound without or with the co-corrector. Three replicate plates were run to determine one EC50. All plates contained negative controls (dimethyl sulfoxide, DMSO) and positive control (2 μM of 3-[(2R,4R)-4-({[1-(2,2-difluoro-1,3-benzodioxol-5-yl)cyclopropyl]carbonyl}amino)-7-methoxy-3,4-dihydro-2H-chromen-2-yl]benzoic acid) as well as on-plate concentration response of the positive control. […] The raw counts from the experiment were analyzed using Accelrys® Assay Explorer v3.3.
1−[3*SDPositive Control+3*SDNegative Control/Absolute(MeanPositive Control−MeanNegative Control)]
wherein “SD” is standard deviation.
The % activity measured at each of the 8 test concentrations of the test compound added either without or with a co-corrector (2 μM of 3-[(2R,4R)-4-({[1-(2,2-difluoro-1,3-benzodioxol-5-yl)cyclopropyl]carbonyl}amino)-7-methoxy-3,4-dihydro-2H-chromen-2-yl]benzoic acid) was normalized to the on-plate positive control using the following formulae:
% activity(Test compound without co-corrector)=[(test compound without co-corrector response−DMSO response)/(positive control response−DMSO response)]*100
% activity(Test compound with co-corrector)=[(test compound with co-corrector response−DMSO response)/(positive control response−DMSO response)]*100
The maximum % activity achieved for the test compound either without or with a co-corrector at any tested concentration is presented in Table 4 along with the respective EC50's calculated using the following general sigmoidal curve with variable Hill slope equation (described as Model 42 in the Accelrys® Assay Explorer v3.3 software):
General sigmoidal curve with concentration, response, top, bottom, EC50 and Hill slope. This model describes a sigmoidal curve with an adjustable baseline, a. The equation can be used to fit curves where response is either increasing or decreasing with respect to the independent variable, “x”.
“x” is a concentration of drug under test. “y” is the response. “a” is the maximum response, and “d” is the minimum response “c” is the inflection point (EC50) for the curve. That is, “y” is halfway between the lower and upper asymptotes when x=c. “b” is the slope-factor or Hill coefficient. The sign of b is positive when the response increases with increasing dose and is negative when the response decreases with increasing dose (inhibition).

Setting [1] is: test compound without co-corrector, read-out: EC50 (without co-corrector).
Where [2] appears, read: with co-corrector (2 μM of 3-[(2R,4R)-4-({[1-(2,2-difluoro-1,3-benzodioxol-5-yl)cyclopropyl]carbonyl}amino)-7-methoxy-3,4-dihydro-2H-chromen-2-yl]benzoic acid), read-out: EC50 (with co-corrector).
Where [3] appears, read: CSE-HRP, test compound without co-corrector, read-out: EC50 (without co-corrector).
Setting [4] is: CSE-HRP, with co-corrector (2 μM of 3-[(2R,4R)-4-({[1-(2,2-difluoro-1,3-benzodioxol-5-yl)cyclopropyl]carbonyl}amino)-7-methoxy-3,4-dihydro-2H-chromen-2-yl]benzoic acid), read-out: EC50 (with co-corrector).
The mark [5] stands for this setting: CSE-HRP, with co-corrector (2 μM).
Where [6] appears, read: test compound without co-corrector.
Setting [7] is: with co-corrector (2 μM of 3-[(2R,4R)-4-({[1-(2,2-difluoro-1,3-benzodioxol-5-yl)cyclopropyl]carbonyl}amino)-7-methoxy-3,4-dihydro-2H-chromen-2-yl]benzoic acid).

`COc1ccc(CC(C)C)cc1CN[C@H]1[C@H](C(C)(C)C)[C@@H](C(=O)O)N(C(=O)C2CCCCC2)[C@H]1c1ccccc1` [Example I-94]: the EC50 was less than 1 µM under setting [1] and less than 1 µM under setting [2]. Moreover, for the setting “with co-corrector (2 μM)”, the “Maximum % activity (with co-corrector)” value is “+++ (≥350)”. In addition, the Emax (without co-corrector) was greater than 200%.

Take `Cc1cc(C(F)(F)F)cc(N[C@@H]2[C@@H](C(C)(C)C)[C@H](C(=O)O)N(C(=O)OC(C)C)[C@@H]2c2ccccc2)n1` (racemic) [II-13]: the EC50 runs as follows: under setting [3], 1 to 10 µM; under setting [4], 1 to 10 µM. For the same compound, the “Maximum % activity (with co-corrector)” value under setting [5] was “+++ (≥350)”. The Emax (CSE-HRP, without co-corrector) is less than 100%.

Take `COc1ncc(C2CCC2)cc1CN[C@H]1[C@H](C(C)(C)C)[C@@H](C(=O)O)N(C(=O)OC(C)C)[C@H]1c1cccnc1N(C)C` [III-224]: the Emax under setting [6] is greater than 200%. The EC50 by setting is: under setting [1], 1 to 10 µM; under setting [2], 1 to 10 µM. The “Maximum % activity (with co-corrector)” value (with co-corrector (2 μM)) was “+++ (≥350)”.

As to `COc1ccc(-c2ccccc2F)cc1CN[C@H]1[C@H](C(C)(C)C)[C@@H](C(=O)O)N(C(=O)C2CCCCC2)[C@H]1c1ccccc1` [Example I-126], the EC50 runs as follows: under setting [1], less than 1 µM; under setting [2], less than 1 µM. Further, the “Maximum % activity (with co-corrector)” value (with co-corrector (2 μM)) is on record as “+++ (≥350)”. Moreover, the Emax (without co-corrector) was greater than 200%.

Consider `Cc1cc(C(F)(F)F)cc(N[C@H]2[C@H](C(C)(C)C)[C@@H](C(=O)O)N(C(=O)C3CCCCC3)[C@H]2c2ccccc2)n1` [Example 4, (2S,3S,4S,5S)-3-tert-butyl-1-(cyclohexanecarbonyl)-4-{[6-methyl-4-(trifluoromethyl)pyridin-2-yl]amino}-5-phenylpyrrolidine-2-carboxylic acid], for which the EC50 under setting [1] was 1 to 10 µM and the EC50 under setting [2] fell in the range of 1 to 10 µM. The “Maximum % activity (with co-corrector)” value (with co-corrector (2 μM)) is recorded as “+++ (≥350)”. The Emax (without co-corrector) was less than 100%.

`CN(C)c1ncc(C(F)(F)F)cc1CN[C@@H]1[C@@H](C(C)(C)C)[C@H](C(=O)O)N(C(=O)C2CCCCC2)[C@@H]1c1ccccc1` (racemic) [III-36]: the Emax under setting [6] is less than 100%. Also, the EC50 reads like this: under setting [1], greater than 10 µM; under setting [2], 1 to 10 µM. The “Maximum % activity (with co-corrector)” value under setting [7] was “++ (≥150 and <350)”.

With `COc1cc(CN[C@H]2[C@H](C(C)(C)C)[C@@H](C(=O)O)N(C(=O)C3CCCCC3)[C@H]2c2ccccc2)cc(OC)c1` [III-133], the Emax under setting [6] is less than 100%. The EC50 runs as follows: under setting [1], greater than 10 µM; under setting [2], 1 to 10 µM. The “Maximum % activity (with co-corrector)” value (with co-corrector (2 μM)) was “++ (≥150 and <350)”.

As for `CC(C)(C)[C@H]1[C@H](Nc2ncccc2OCc2ccccc2)[C@H](c2ccccc2)N(C(=O)C2CCCCC2)[C@@H]1C(=O)O` [III-160], the Emax under setting [6] is less than 100%. The EC50 lay in the range of 1 to 10 µM under setting [1] and 1 to 10 µM under setting [2]. For the same compound, the “Maximum % activity (with co-corrector)” value (with co-corrector (2 μM)) was “++ (≥150 and <350)”.

Take `COc1cc(C(F)(F)F)ccc1CN[C@H]1[C@H](C(C)(C)C)[C@@H](C(=O)O)N(C(=O)OC(C)C)[C@H]1c1cccnc1OC` [II-513]: the Emax under setting [6] lay within 100 to 200%. In addition, the EC50 is, setting by setting: under setting [1], 1 to 10 µM; under setting [2], 1 to 10 µM. The “Maximum % activity (with co-corrector)” value under setting [7] was “+++ (≥350)”.

As to `COc1ccc(C(C)(C)C)cc1CN[C@H]1[C@H](C(C)(C)C)[C@@H](C(=O)O)N(C(=O)OC(C)C)[C@H]1c1ccccc1` [Example I-81], the EC50 lay within 1 to 10 µM under setting [1] and 1 to 10 µM under setting [2]. For the same compound, the “Maximum % activity (with co-corrector)” value (with co-corrector (2 μM)) was “+++ (≥350)”. Besides, the Emax (without co-corrector) is greater than 200%.

As for `COc1ccc(C(C)(C)C)cc1CN[C@H]1[C@H](C(C)(C)C)[C@@H](C(=O)O)N(C(=O)[C@@H]2CCCO2)[C@H]1c1ccccc1C` [Example I-261], the EC50 is, setting by setting: under setting [3], 1 to 10 µM; under setting [4], 1 to 10 µM. Besides, the “Maximum % activity (with co-corrector)” value under setting [5] is “+++ (≥350)”. Further, the Emax (CSE-HRP, without co-corrector) was greater than 200%.

Turning to `COc1cc2ccccc2cc1CN[C@H]1[C@H](C(C)(C)C)[C@@H](C(=O)O)N(C(=O)OC(C)C)[C@H]1c1cccnc1N(C)C` [II-562], the Emax under setting [6] is 100 to 200%. The EC50 by setting is: under setting [1], 1 to 10 µM; under setting [2], 1 to 10 µM. Further, the “Maximum % activity (with co-corrector)” value under setting [7] was “+++ (≥350)”.

For `CO[C@H](C(=O)N1[C@H](C(=O)O)[C@@H](C(C)(C)C)[C@H](Nc2cc(C(F)(F)F)cc(C)n2)[C@@H]1c1ccccc1)c1ccccc1` [III-103], the Emax under setting [6] is less than 100%. In addition, the EC50 reads like this: under setting [1], greater than 10 µM; under setting [2], 1 to 10 µM. For the same compound, the “Maximum % activity (with co-corrector)” value (with co-corrector (2 μM)) is recorded as “+ (<150)”.

For `COc1ccc(C(C)(C)C)cc1CN[C@H]1[C@H](C(C)(C)C)[C@@H](C(=O)O)N(C(=O)OC(C)C)[C@H]1c1cccnc1OC(F)F` [Example I-227], the EC50 by setting is: under setting [1], 1 to 10 µM; under setting [2], 1 to 10 µM. Besides, the “Maximum % activity (with co-corrector)” value (with co-corrector (2 μM)) was “+++ (≥350)”. The Emax (without co-corrector) lay in the range of 100 to 200%.

As to `COc1ccc(C(C)(C)C)cc1CN[C@H]1[C@H](C(C)(C)C)[C@@H](C(=O)O)N(C(=O)[C@H]2CCCCO2)[C@H]1c1ccccc1` [II-451], under setting [6], the Emax was greater than 200%. In addition, the EC50 fell in the range of 1 to 10 µM under setting [1] and 1 to 10 µM under setting [2]. Under setting [7], the “Maximum % activity (with co-corrector)” value is reported as “+++ (≥350)”.

For `CC(C)(C)[C@@H]1[C@@H](NCc2cc(Cl)ncc2O)[C@@H](c2ccccc2)N(C(=O)C2CCCCC2)[C@H]1C(=O)O` (racemic) [III-73], the Emax under setting [6] is less than 100%. The EC50 runs as follows: under setting [1], greater than 10 µM; under setting [2], 1 to 10 µM. Further, the “Maximum % activity (with co-corrector)” value under setting [7] is “++ (≥150 and <350)”.

With `COc1ccc(C(C)(C)C)cc1CN[C@H]1[C@H](C(C)(C)C)[C@@H](C(=O)O)N(C(=O)[C@@H]2CCCO2)[C@H]1c1cccnc1C1CC1` [Example 96, (2S,3S,4S,5S)-3-tert-butyl-4-{[(5-tert-butyl-2-methoxyphenyl)methyl]amino}-5-(2-cyclopropylpyridin-3-yl)-1-[(2S)-oxolane-2-carbonyl]pyrrolidine-2-carboxylic acid], the half-maximal effective concentration (EC50) under setting [1] is 1 to 10 µM and the EC50 under setting [2] lay in the range of 1 to 10 µM. Where the note is “with co-corrector (2 μM)”, the “Maximum % activity (with co-corrector)” value is “+++ (≥350)”. Moreover, the Emax (without co-corrector) was in the range of 100 to 200%.

Turning to `COc1ccc(-c2cnn(C)c2)cc1CN[C@H]1[C@H](C(C)(C)C)[C@@H](C(=O)O)N(C(=O)C2CCCCC2)[C@H]1c1ccccc1` [III-186], under setting [6], the Emax was less than 100%. Moreover, the EC50 was in the range of 1 to 10 µM under setting [1] and 1 to 10 µM under setting [2]. Further, the “Maximum % activity (with co-corrector)” value (with co-corrector (2 μM)) is “++ (≥150 and <350)”.

Turning to `Cc1cc(C(F)(F)F)cc(N[C@@H]2[C@@H](C(C)(C)C)[C@H](C(=O)O)N(C(=O)C3CCC4(CC3)CC4)[C@@H]2c2ccccc2)n1` (racemic) [Example I-37], the EC50 is, setting by setting: under setting [1], greater than 10 µM; under setting [2], 1 to 10 µM. Also, the “Maximum % activity (with co-corrector)” value (with co-corrector (2 μM)) is “++ (≥150 and <350)”. The Emax (without co-corrector) was less than 100%.

Regarding `COc1ccc(C(C)(C)C)cc1CN[C@H]1[C@H](C(C)(C)C)[C@@H](C(=O)O)N(C(=O)C2CCCCC2)[C@H]1c1ccccc1OC(F)F` [Example I-229], the EC50 is 1 to 10 µM under setting [1] and less than 1 µM under setting [2]. For the same compound, the “Maximum % activity (with co-corrector)” value (with co-corrector (2 μM)) is “+++ (≥350)”. The Emax (without co-corrector) fell in the range of 100 to 200%.
